Source: ChEMBL document CHEMBL2396517, “Design, synthesis and biological evaluation of novel aminothiazoles as antiviral compounds acting against human rhinovirus” (Bioorg Med Chem Lett, 2013)
Values belong to the compound of their own block, whether it stands above or below them.

Key:
[1] = Permeability across apical to basolateral side in human Caco2 cells; assay type: ADME, cell-based; conditions: Caco-2, read-out: permeability
physchem = conditions: buffer, pH 7.4
[2] = Half life in rat at 5 mg/kg, po and 2 mg/kg, iv; assay type: ADME, organism-based; conditions: in vivo
[3] = Total clearance in rat at 5 mg/kg, po and 2 mg/kg, iv; assay type: ADME, organism-based; conditions: in vivo
[4] = (§1) Oral bioavailability in rat at 5 mg/kg; assay type: ADME, organism-based; conditions: in vivo
[5] = AUC in rat at 5 mg/kg, po and 2 mg/kg, iv; assay type: ADME, organism-based; conditions: plasma
[6] = Cmax in rat at 5 mg/kg, po and 2 mg/kg, iv; assay type: ADME, organism-based; conditions: in vivo
Rattus norvegicus = assay: as §1; assay type: ADME, organism-based; conditions: in vivo
[7] = Cmax in CD1 mouse at 250 mg/kg; assay type: ADME, organism-based; set-up: dose 250 mg/kg; conditions: in vivo
[8] = Cmax in CD1 mouse at 5 mg/kg; assay type: ADME, organism-based; set-up: dose 5 mg/kg; conditions: in vivo
[9] = Total clearance in CD1 mouse at 2 mg/kg, iv; assay type: ADME, organism-based; set-up: dose 2 mg/kg, route intravenous; conditions: in vivo
[10] = AUC in CD1 mouse at 5 mg/kg; assay type: ADME, organism-based; set-up: dose 5 mg/kg; conditions: plasma
[11] = AUC in CD1 mouse at 50 mg/kg; assay type: ADME, organism-based; set-up: dose 50 mg/kg; conditions: plasma
[12] = AUC in CD1 mouse at 250 mg/kg; assay type: ADME, organism-based; set-up: dose 250 mg/kg; conditions: plasma
[13] = Cmax in CD1 mouse at 50 mg/kg; assay type: ADME, organism-based; set-up: dose 50 mg/kg; conditions: in vivo

Papp A→B [1]: 11.3 ×10⁻⁶ cm/s
logD (physchem): 2.9
SMILES: Nc1ccc(-c2cnc(NC(=O)CN(Cc3ccccc3)C(=O)c3ccncc3)s2)cc1

Papp A→B [1]: 2.3 ×10⁻⁶ cm/s
logD (physchem): 2.6
SMILES: Nc1ccc(-c2cnc(NC(=O)CN(Cc3ccccc3)C(=O)c3ccncc3)s2)cn1

Papp A→B [1]: 2.1 ×10⁻⁶ cm/s
logD (physchem): 2.8
SMILES: Cc1nc(NC(=O)CN(Cc2ccccc2)C(=O)c2ccncc2)sc1-c1ccc(N)nc1

Papp A→B [1]: 19 ×10⁻⁶ cm/s
logD (physchem): 2.5
SMILES: Cc1nc(NC(=O)CN2C(=O)OC[C@H]2C(C)C)sc1-c1ccc(N)cc1

Papp A→B [1]: 21 ×10⁻⁶ cm/s
logD (physchem): 3.2
SMILES: CC(=O)N1[C@@H](c2ccccc2)CC[C@H]1C(=O)Nc1ncc(-c2ccc(N)cc2)s1

Papp A→B [1]: 17 ×10⁻⁶ cm/s
SMILES: Cc1ccc(C(=O)N(CC(=O)Nc2ncc(-c3ccc(N)cc3)s2)Cc2ccccc2)cn1

half-life [2]: 0.38 h
clearance [3]: 70 mL/min/kg
bioavailability [4]: 77%
AUC [5]: 2.65 µM·h
Cmax [6]: 1.5 µM
Papp A→B [1]: 18 ×10⁻⁶ cm/s
logD (physchem): 2.8
SMILES: CO[C@H]1CC[C@@H](C(=O)Nc2nc(C)c(-c3ccc(N)nc3)s2)CC1

Papp A→B [1]: 22 ×10⁻⁶ cm/s
logD (physchem): 3.8
SMILES: Cc1nc(NC(=O)[C@H]2CC[C@@H](C(F)(F)F)CC2)sc1-c1ccc(N)nc1

Papp A→B [1]: 20 ×10⁻⁶ cm/s
logD (physchem): 3.8
SMILES: Cc1nc(NC(=O)C2(C)CCCCC2)sc1-c1ccc(N)nc1

half-life [2]: 1.7 h
clearance [3]: 40 mL/min/kg
F (Rattus norvegicus): 160%
AUC [5]: 9.7 µM·h
Cmax [6]: 1.9 µM
Papp A→B [1]: 20 ×10⁻⁶ cm/s
logD (physchem): 2.9
SMILES: Cc1nc(NC(=O)C(C)CC(F)(F)F)sc1-c1ccc(N)nc1 (stereo not given)

Papp A→B [1]: 26 ×10⁻⁶ cm/s
logD (physchem): 4
SMILES: Cc1nc(NC(=O)Cc2nc(-c3ccccc3)c(C)o2)sc1-c1ccc(N)nc1

Cmax [7]: 55 µM
Cmax [8]: 1.8 µM
Papp A→B [1]: 44 ×10⁻⁶ cm/s
clearance [9]: 91 mL/min/kg
AUC [10]: 2.7 µM·h
AUC [11]: 44 µM·h
AUC [12]: 176 µM·h
Cmax [13]: 18 µM
logD (physchem): 3.2
SMILES: Cc1nc(NC(=O)[C@H](C)CC(F)(F)F)sc1-c1ccc(N)nc1

Cmax [7]: 26 µM
Cmax [8]: 2.2 µM
Papp A→B [1]: 42 ×10⁻⁶ cm/s
clearance [9]: 71 mL/min/kg
AUC [10]: 4 µM·h
AUC [11]: 38 µM·h
AUC [12]: 12 µM·h
Cmax [13]: 20 µM
logD (physchem): 3.2
SMILES: Cc1nc(NC(=O)[C@@H](C)CC(F)(F)F)sc1-c1ccc(N)nc1

Cmax [7]: 59 µM
Cmax [8]: 0.5 µM
Papp A→B [1]: 41 ×10⁻⁶ cm/s
clearance [9]: 58 mL/min/kg
AUC [10]: 208 µM·h
AUC [11]: 514 µM·h
Cmax [13]: 12 µM
logD (physchem): 3.4
SMILES: Cc1nc(NC(=O)C(C)(C)CC(F)(F)F)sc1-c1ccc(N)nc1

Cmax [7]: 52 µM
Cmax [8]: 1.9 µM
half-life [2]: 2.8 h
clearance [3]: 18 mL/min/kg
bioavailability [4]: 91%
AUC [5]: 10 µM·h
Cmax [6]: 2 µM
Papp A→B [1]: 11 ×10⁻⁶ cm/s
AUC [10]: 3.6 µM·h
AUC [11]: 45 µM·h
AUC [12]: 307 µM·h
Cmax [13]: 15 µM
logD (physchem): 2.7
SMILES: COc1ccc(-c2c(C)nn3c(NCCN4CCOCC4)cc(C)nc23)cc1OC
